Data: the supplement of paper PMC12420376

How the values were obtained:
KURAMOCHI = assay: drug sensitivity score (DSS2) on cancer cell count; higher = more sensitive; extreme values may be limits of the assay; conditions: 72 h
Outline: (§1)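 Ovarian cancer cells grown alone or 1:1 with lung or skin fibroblasts in direct co-culture were treated for 72 h on 384-well plates carrying 528 approved and investigational compounds at 5 concentrations. Fixed cells were stained for CK8/18 with Hoechst and imaged to count cancer cells. A drug sensitivity score was then derived in Breeze from logistic curve fits.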

OVCAR8 = assay: as above; conditions: 72 h
Outline: as §1

[1] = co-cultured fibroblast: BJHTERT
[2] = co-cultured fibroblast: none (monoculture)

SMILES | drug sensitivity score (KURAMOCHI; [1]) | drug sensitivity score (KURAMOCHI; co-cultured fibroblast: WI38) | drug sensitivity score (KURAMOCHI; [2]) | drug sensitivity score (OVCAR8; [1]) | drug sensitivity score (OVCAR8; co-cultured fibroblast: WI38) | drug sensitivity score (OVCAR8; [2])
CNC(=O)c1ccc2cc([C@@]3(O)CCn4cncc43)ccc2c1 [Orteronel] | 0 DSS | 0 DSS | 0.5 DSS | 0 DSS | 0.3 DSS | 0 DSS
Cc1ccc(C(=O)N(CCCN)[C@@H](c2oc3cc(Cl)ccc3c(=O)c2Cc2ccccc2)C(C)C)cc1 | 8.3 DSS | 17.2 DSS | 14.6 DSS | 5.2 DSS | 7.6 DSS | 29.1 DSS
C[C@@H]1CN(CC(=O)Nc2ccc3c(c2)Cc2cccc(-c4cc(=O)cc(N5CCOCC5)o4)c2S3)C[C@H](C)O1 | 3.2 DSS | 0.2 DSS | 2.5 DSS | 7.6 DSS | 5.6 DSS | 0.7 DSS
NS(=O)(=O)OC[C@@H]1C[C@@H](n2ccc3c(N[C@H]4CCc5ccccc54)ncnc32)C[C@@H]1O [Pevonedistat] | 14 DSS | 19.1 DSS | 18.2 DSS | 20.9 DSS | 12.5 DSS | 26.4 DSS
CCCCC(=O)OCC(=O)[C@]1(O)Cc2c(O)c3c(c(O)c2[C@@H](O[C@H]2C[C@H](NC(=O)C(F)(F)F)[C@H](O)[C@H](C)O2)C1)C(=O)c1c(OC)cccc1C3=O [Valrubicin] | 19.7 DSS | 17.1 DSS | 24.1 DSS | 17.6 DSS | 15.3 DSS | 18.4 DSS
COc1cc(N2CCN(C)CC2)ccc1Nc1nccc(-c2cn(C)c3cnccc23)n1 [AZ191] | 5.9 DSS | 2.3 DSS | 6.9 DSS | 3.3 DSS | 2 DSS | 1.3 DSS
CCCCNc1ncc(C(=O)NCc2ccc(-n3ccnc3)cc2)c(NC2CCC(O)CC2)n1 (stereo unspecified) [UNC2881] | 2.4 DSS | 3 DSS | 0.4 DSS | 0.2 DSS | 1.1 DSS | 0 DSS
COc1cc2c(cc1OCCCN1CCCC1)N=C(N)C21CCC1 [A-366] | 2.1 DSS | 0.5 DSS | 0 DSS | 4.1 DSS | 0 DSS | 0.3 DSS
COCC1(CO)C(=O)C2CCN1CC2 (stereo unspecified) [APR-246] | 0 DSS | 0 DSS | 0 DSS | 0 DSS | 0 DSS | 0 DSS
CC(C)(C)c1cnc(CSc2cnc(NC(=O)C3CCNCC3)s2)o1 [SNS-032] | 21.1 DSS | 18.1 DSS | 25.5 DSS | 28.3 DSS | 21 DSS | 24.3 DSS
CCN(CC)CCNC(=O)c1c(C)[nH]c(/C=C2\C(=O)Nc3ccc(-c4csc(-c5ccccc5)n4)cc32)c1C [Amcasertib] | 8.1 DSS | 3.9 DSS | 6.7 DSS | 3.3 DSS | 3.1 DSS | 0 DSS
CN(c1ncccc1CNc1nc(Nc2ccc3c(c2)CC(=O)N3)ncc1C(F)(F)F)S(C)(=O)=O | 11.5 DSS | 10.7 DSS | 12.6 DSS | 8.5 DSS | 6.6 DSS | 6.2 DSS
Oc1nc(-c2ccc(C(F)(F)F)cc2)nc2c1CSCC2 [XAV-939] | 1.1 DSS | 0 DSS | 0.5 DSS | 0.6 DSS | 0.1 DSS | 0.3 DSS
CCCCCCCCCCCCCCCCOP(=O)([O-])OCC[N+](C)(C)C [Miltefosine] | 4.4 DSS | 7.4 DSS | 5 DSS | 8.4 DSS | 7.3 DSS | 5.7 DSS
Oc1ncnc2[nH]ncc12 [Allopurinol] | 0 DSS | 0 DSS | 0 DSS | 0 DSS | 0 DSS | 0 DSS
COc1cc(NS(C)(=O)=O)ccc1Nc1c2ccccc2nc2ccccc12 [Amsacrine] | 14.4 DSS | 18.8 DSS | 21.8 DSS | 20.1 DSS | 19.2 DSS | 23.8 DSS
Cn1cc(-c2cnn3c(N)c(Br)c([C@@H]4CCCNC4)nc23)cn1 [MK-8776] | 1.2 DSS | 0 DSS | 1.6 DSS | 7.8 DSS | 0.2 DSS | 0 DSS
NC(=O)c1cccc(-c2cccc(OC(=O)NC3CCCCC3)c2)c1 [URB597] | 0 DSS | 0 DSS | 0 DSS | 0 DSS | 0 DSS | 0 DSS
COc1cccc2c1C(=O)c1c(O)c3c(c(O)c1C2=O)C[C@@](O)(C(=O)CO)C[C@@H]3O[C@H]1C[C@H](N)[C@@H](O)[C@H](C)O1 [Epirubicin] | 12.2 DSS | 12.7 DSS | 19.2 DSS | 14.7 DSS | 9 DSS | 12.3 DSS
CCCCOc1nc(N)c2c(n1)N(Cc1cccc(CN3CCCC3)c1)CC(=O)N2 [Vesatolimod] | 2.9 DSS | 0 DSS | 0 DSS | 0.4 DSS | 0 DSS | 0 DSS
COc1cc2c(cc1OC(C)C)[C@H](c1ccc(Cl)cc1)N(c1ccc(N(C)C[C@H]3CC[C@H](N4CCN(C)C(=O)C4)CC3)cc1)C(=O)C2 [NVP-CGM097] | 7.7 DSS | 3.4 DSS | 5.4 DSS | 10.1 DSS | 11.1 DSS | 3.5 DSS
CC(=O)O[C@]1(C(C)=O)CC[C@H]2[C@@H]3C=C(C)C4=CC(=O)CC[C@]4(C)[C@H]3CC[C@@]21C [Megestrol acetate] | 0 DSS | 6 DSS | 0 DSS | 0 DSS | 0 DSS | 0 DSS
Cn1cnc2c(F)c(Nc3ccc(Br)cc3Cl)c(C(=O)NOCCO)cc21 [Selumetinib] | 15.5 DSS | 6.4 DSS | 20.1 DSS | 6.1 DSS | 0 DSS | 7.8 DSS
CC(C)(C)Cn1c(N)nc2ccc(-c3[nH]c(C(C)(C)C)nc3-c3ccc(F)cc3)nc21 [Ralimetinib] | 10.8 DSS | 1.7 DSS | 0 DSS | 0 DSS | 0 DSS | 2.5 DSS
CCN1CCN(c2ccc(Nc3cc(N(C)C(=O)Nc4c(Cl)c(OC)cc(OC)c4Cl)ncn3)cc2)CC1 [Infigratinib] | 0 DSS | 0 DSS | 0 DSS | 0 DSS | 0 DSS | 0 DSS
Cc1cc(Nc2nc(N[C@@H](C)c3ncc(F)cn3)ncc2Cl)[nH]n1 [AZD1480] | 0.1 DSS | 0.7 DSS | 0 DSS | 0.4 DSS | 0 DSS | 0.4 DSS
